Columns and labels:
[1] = Dynamic light scattering (DLS) of mRNA/peptoid formulations: particle size and polydispersity; assay type: physicochemical; conditions: Fluc mRNA/peptoid formulation; for Size PDI: size polydispersity index by DLS, 5:1 mass ratio; for Size (nm): volume average particle size/diameter by DLS, 5:1 mass ratio peptoid:cargo
Description: (§1) To prepare nanoparticle formulations, the amino lipidated peptoid is mixed by pipetting with nucleic acid at a mass ratio between approximately 1:1 (peptoid:cargo) and 20:1. Prior to formulation, amino lipidated peptoid and nucleic acid cargo were diluted in ethanol and acidic buffer (PBS adjusted to pH 5.5 with 0.1 M HCl) respectively to a volume ratio of 1:3 and to target a final cargo concentration of approximately 0.05 mg/mL to 0.2 mg/mL. The exemplary amino lipidated cationic peptoids described in Example 2 were combined with firefly luciferase (Fluc) mRNA to form nanoparticle compositions to be evaluated for therapeutic and/or prophylactic purposes in vitro or in vivo. The formulations were prepared according to the protocol of Example 3 and mixed by simple pipetting. The mRNA/peptoid formulation at a 5:1 mass ratio of peptoid:cargo were evaluated by dynamic light scattering (DLS) in order to determine the volume average particle size/diameter (nm) of the mRNA/peptoid complex and the size polydispersity index (PDI) within the formulation. The percentage of mRNA encapsulation for each formulation of the exemplary compounds were determined by fluorescence of the Qubit RNA HS (Invitrogen) dye before and after lysis of particles by Triton X-100.

[2] = mRNA encapsulation by fluorescence of Qubit RNA HS dye before and after lysis with Triton X-100; assay type: physicochemical; conditions: percentage of mRNA encapsulation; Fluc mRNA/peptoid formulation, 5:1 mass ratio
Description: as §1, with “The” for “To prepare nanoparticle formulations, the amino lipidated peptoid is mixed by pipetting with nucleic acid at a mass ratio between approximately 1:1 (peptoid:cargo) and 20:1. Prior to formulation, amino lipidated peptoid and nucleic acid cargo were diluted in ethanol and acidic buffer (PBS adjusted to pH 5.5 with 0.1 M HCl) respectively to a volume ratio of 1:3 and to target a final cargo concentration of approximately 0.05 mg/mL to 0.2 mg/mL. The”

HeLa cells [3] = experiment: In vitro expression of firefly luciferase (Fluc) after treatment with Fluc mRNA/amino lipidated peptoid formulations, no PEG or 2% DMG-PEG2000; assay type: cell-based
Description: The efficacy of mRNA/amino lipidated peptoid formulations was evaluated in vitro based on their ability to deliver the firefly luciferase (Fluc) reporter gene to cultured cells. Amino lipidated peptoids were combined with Fluc mRNA at a 5:1 w/w ratio, and the resulting particles were added to cultured HeLa cells at a dose of 100 ng/well (in 100 μL total volume). The resulting luciferase expression (RLU) was measured by a luminescence plate reader after 6 hours and 24 hours of treatment. […] In addition to evaluating nanoparticle complexes formed between mRNA cargos and amino lipidated peptoids alone, multicomponent formulations containing a small amount of PEG-lipid DMG-PEG2000 were also tested for in vitro Fluc mRNA delivery. In these formulations, DMG-PEG2000 was pre-mixed with candidate peptoid at an overall 2% incorporation (w/w), while maintaining the same 5:1 mass ratio of peptoid:mRNA used previously.

HeLa cells [4] = experiment: In vitro Fluc expression with variable peptoid:mRNA mass ratio, 2% DMG-PEG2000; assay type: cell-based; conditions: 24 h; for Observed Luciferase Expression (RLU) for Given Formulation Mass Ratio 2:1: 2% (w/w) DMG-PEG2000, peptoid:mRNA 2:1; for Observed Luciferase Expression (RLU) for Given Formulation Mass Ratio 3.5:1: 2% (w/w) DMG-PEG2000, peptoid:mRNA 3.5:1; for Observed Luciferase Expression (RLU) for Given Formulation Mass Ratio 5:1: 2% (w/w) DMG-PEG2000, peptoid:mRNA 5:1; for Observed Luciferase Expression (RLU) for Given Formulation Mass Ratio 7.5:1: 2% (w/w) DMG-PEG2000, peptoid:mRNA 7.5:1
Description: The charge ratio dependence of amino lipidated peptoid delivery vehicles was evaluated by formulating particles between Fluc mRNA and delivery vehicles at varying mass ratios. Formulations were varied between 2:1 and 7.5:1 peptoid:mRNA (w/w) ratios (2:1, 3.5:1, 5:1 and 7.5:1). In addition, the role of DMG-PEG2000 was also explored with the mass ratios, either by excluding DMG-PEG2000 or incorporating DMG-PEG2000 at 2% (w/w) relative to amino lipidated peptoid. Fluc expression from these formulations was measured in HeLa cells following treatment for 24 hours. […] FIGS. 6B and 6C show plots of the average bioluminescence (RLU) for HeLa cells treated with the formulations of exemplary amino lipidated cationic peptoid compounds 1-36, all formulated with 2% w/w DMG-PEG2000.

[5] = MTT viability assay after treatment with Fluc mRNA/amino lipidated peptoid formulations; assay type: cell-based; conditions: human, HeLa cells
Description: Cellular viability was measured following treatment with Fluc mRNA/amino lipidated peptoid formulations by a traditional MTT viability assay. […] In this assay, cells were first treated with peptoid formulations at a final mRNA concentration of 100 ng/well for 8 hours. Cells were then left to grow for 48 hours, after which time they were exposed to 1.5 mg/mL 3-(4,5-dimethylthiazol-2-yl)-2,5-diphenyltetrazolium bromide (MTT) for 2 hours, then lysed using a solubilizing solution of 10% Triton-X 100 in acidic isopropanol (0.1N HCl). The signal corresponding to reduced formazan was normalized to untreated cells to provide a relative viability of each treated condition. […] In general, nearly all conditions maintained at least 80% viability with the only exceptions being formulations of compound 5, 34, and 35.

[6] = no PEG, peptoid:Fluc mRNA 5:1 w/w, 100 ng/well, 6 h of treatment
[7] = no PEG, peptoid:Fluc mRNA 5:1 w/w, 100 ng/well, 24 h of treatment
[8] = with 2% (w/w) DMG-PEG2000, peptoid:mRNA 5:1, 6 h after treatment
[9] = with 2% (w/w) DMG-PEG2000, peptoid:mRNA 5:1, 24 h after treatment

SMILES | Size PDI [1] | Size (nm) [1] | % Encapsulation [2] | Luciferase Expression (RLU) 6 h (HeLa cells [3]; [6]) | Luciferase Expression (RLU) 24 h (HeLa cells [3]; [7]) | Luciferase Expression (RLU) 6 h (HeLa cells [3]; [8]) | Luciferase Expression (RLU) 24 h (HeLa cells [3]; [9]) | Observed Luciferase Expression (RLU) for Given Formulation Mass Ratio 2:1 (HeLa cells [4]) | Observed Luciferase Expression (RLU) for Given Formulation Mass Ratio 3.5:1 (HeLa cells [4]) | Observed Luciferase Expression (RLU) for Given Formulation Mass Ratio 5:1 (HeLa cells [4]) | Observed Luciferase Expression (RLU) for Given Formulation Mass Ratio 7.5:1 (HeLa cells [4]) | viability at 8 h, 500 ng/well ([5]; Relative Viability (%) 2% PEG) | viability at 8 h, 500 ng/well ([5]; Relative Viability (%) No PEG)
CCCCCCCCN(CC(N)=O)C(=O)CN(CCCCCCCC)C(=O)CN(CCc1ccccc1)C(=O)CN(CCc1ccccc1)C(=O)CN(CCN)C(=O)CN(CCc1ccccc1)C(=O)CN(CCc1ccccc1)C(=O)CN(CCN)C(=O)CN(CCc1ccccc1)C(=O)CN(CCc1ccccc1)C(=O)CNCCN [Compound 1] | 0.047 | 356.9 nm | 90.1% | 1.22E+02 RLU | 4.00E+01 RLU | 2.09E+02 RLU | 8.67E+00 RLU | 6.82E+02 RLU | 3.12E+02 RLU | 2.31E+02 RLU | 3.35E+01 RLU | 88.1% | 97.4%
CCCCCCCCCCCCN(CC(N)=O)C(=O)CN(CCCCCCCCCCCC)C(=O)CN(CCc1ccccc1)C(=O)CN(CCc1ccccc1)C(=O)CN(CCN)C(=O)CN(CCc1ccccc1)C(=O)CN(CCc1ccccc1)C(=O)CN(CCN)C(=O)CN(CCc1ccccc1)C(=O)CN(CCc1ccccc1)C(=O)CNCCN [Compound 3] | 0.247 | 255.3 nm | 95.9% | 2.27E+02 RLU | 2.99E+02 RLU | 3.14E+02 RLU | 4.68E+02 RLU | 4.42E+03 RLU | 2.56E+03 RLU | 4.53E+03 RLU | 2.69E+03 RLU | 95.3% | 91.2%
CCCCCCCCCCCCN(CC(N)=O)C(=O)CN(CCCCCCCCCCCC)C(=O)CN(CCc1ccc(OC)cc1)C(=O)CN(CCc1ccc(OC)cc1)C(=O)CN(CCN)C(=O)CN(CCc1ccc(OC)cc1)C(=O)CN(CCc1ccc(OC)cc1)C(=O)CN(CCN)C(=O)CN(CCc1ccc(OC)cc1)C(=O)CN(CCc1ccc(OC)cc1)C(=O)CNCCN [Compound 4] | 0.191 | 326.7 nm | 99.0% | 1.96E+02 RLU | 1.13E+02 RLU | 3.16E+02 RLU | 3.09E+02 RLU | 3.27E+03 RLU | 1.32E+03 RLU | 7.84E+03 RLU | 1.14E+03 RLU | 89.7% | 90.4%
